Solubility in water data for two molecules are collected here from US20250318524A1, “ANTIMICROBIAL COATING COMPOSITION AND METHOD OF USE THEREOF” (priority 2024, published 2025).

The data set can be described thus: Selection of antimicrobial agents: solubility in aqueous solution, stability, compatibility with the coating composition.

Consider `N=C(NCCCCCCNC(=N)NC(=N)Nc1ccc(Cl)cc1)NC(=N)Nc1ccc(Cl)cc1.O=C(O)[C@H](O)[C@@H](O)[C@H](O)[C@H](O)CO.O=C(O)[C@H](O)[C@@H](O)[C@H](O)[C@H](O)CO` [Chlorhexidine gluconate, chlorhexidine gluconate], for which the solubility in water result is listed as “good water solubility”. To polyhexamethylene biguanide [PHMB] belongs “good water solubility”.
